Structures can show the parent of a compound that is named as a salt.

This is an account of results in patent US20110268818A1, “NGAL-BINDING SIDEROPHORES AND USE THEREOF TO TREAT IRON DEFICIENCY AND IRON OVERLOAD” (priority 2008, published 2011).

A short description of assay [1]: Siderophore:iron binding assay (paper chromatography). The conditions noted are these: for Fe: Chromatography: 55Fe mobilised by compound on paper chromatogram developed in water, Yes/No. From the text: Siderophore:Iron Binding Assay. To test whether candidates bound iron directly, candidates (1 nmole) were mixed with ^55Fe (1 pmole), and then separated bound from free ^55Fe using paper chromatography developed in water.
Paper chromatography: The Fe-Siderophore Binding Assay: The concept underlying the Ngal-siderophore-Fe binding assay is that the urinary molecule provides an iron binding siderophore, and that the Ngal protein provides the carrier which retains the siderophore:Fe on the 10 KDa filter. […] To directly test this idea, we will mix 55Fe with HMDB compounds and then separate bound from free 55Fe by using paper chromatography. […] The assay also provides an independent means to follow the purification of the urinary siderophore. Using this assay, we can measure the specific activity of the fractions to identify the peak activity, as well as to compare the urinary fraction with enterochelin to establish relative units of activity.

The target of assay [2] is T1, NGAL (Homo sapiens, UniProt P80188).
T1 construct: made in house; host or cells: E. coli BL-21
T1 sequence (P80188 21-198): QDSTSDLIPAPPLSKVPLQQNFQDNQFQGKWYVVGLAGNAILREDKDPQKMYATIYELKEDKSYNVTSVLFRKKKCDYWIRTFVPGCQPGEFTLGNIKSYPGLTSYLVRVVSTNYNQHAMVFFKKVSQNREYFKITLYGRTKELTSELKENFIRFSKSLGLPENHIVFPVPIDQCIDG
As to the kind of experiment: NGAL:siderophore:iron binding assay (retention on 10 kDa filter). The conditions noted are these: for NGAL-siderophore-Fe binding activity (in words): iron retention by NGAL on filter. As for the experimental part:
NGAL:Siderophore:Iron Binding Assays. […] After 60 minutes, the mixture was washed 3 times (YM-10) or alternatively gel filtered (PD-10, GE Biosciences). Ent loaded NGAL served as a positive control. Ferric citrate (1 mM) or Ent:iron (500 μM) served as competitors of ^55Fe binding.
After 60 minutes at room temperature, the mixture was then washed 3 times on a 10-kDa membrane (Amicon YM-10; Millipore Corp.). Ngal loaded with iron-free enterochelin (rather than apo-Ngal) served as a positive control for iron capture. Ferric citrate (1 mM) or iron-loaded enterochelin (siderophore:Fe, […]) was used as a competitor of 55Fe binding.

Setting [3] is: apoNGAL 10 μM, 55Fe, compound 10 μM, pH 7.4, washed on 10 kDa filter.

`Nc1c(O)cccc1C(=O)CC(N)C(=O)O` (racemic) [3-Hydroxy-DL-kynurenine]: in assay [1], the “iron chelating activity by paper chromatography (in words)” value (shortened to “iron chelating activity”) is “active” and the “Fe: Chromatography” value was “Yes”. Further, the “NGAL: Chelator: Fe % Retention” value in assay [2] (setting [3]) is given as 3%.
Turning to `CCC1C(=O)NC(CC2=N/C(=C\c3[nH]c(CC4NC(=O)C(C)C4CC)c(C)c3CCC(=O)O)C(CCC(=O)O)=C2C)C1C` (stereo not shown) [Urobilin HCl], the “Fe: Chromatography” value in assay [1] was “No”. Also, in assay [2] (setting [3]), the “NGAL: Chelator: Fe % Retention” value amounted to 3%.
As for `O=C(/C=C/c1ccc(O)c(O)c1)O[C@@H]1C[C@](O)(C(=O)O)C[C@@H](O)[C@H]1O` [Chlorogenic acid], the “NGAL: Chelator: Fe % Retention” value in assay [2] (setting [3]) turned out to be 6%.
With `O=C(/C=C/c1ccc(O)c(O)c1)O[C@H](Cc1ccc(O)c(O)c1)C(=O)O` [Rosmarinic acid], in assay [1], the “iron chelating activity” value was “active” and the “Fe: Chromatography” value was “Yes”. In addition, the “NGAL: Chelator: Fe % Retention” value in assay [2] (setting [3]) came to 50%. In assay [2], the “NGAL-siderophore-Fe binding activity (in words)” value is reported as “active”.
On to `NCCc1cc(O)c(O)cc1O` [6-Hydroxydopamine], for which the “Fe: Chromatography” value in assay [1] is given as “No”. In addition, the “NGAL: Chelator: Fe % Retention” value in assay [2] (setting [3]) was 4%.
As to `O=c1c(O)c(-c2cc(O)c(O)c(O)c2)oc2cc(O)cc(O)c12` [Myricetin], in assay [1], the “Fe: Chromatography” value is listed as “No”. Further, in assay [2] (setting [3]), the “NGAL: Chelator: Fe % Retention” value is given as 28%. Moreover, the “NGAL-siderophore-Fe binding activity (in words)” value in assay [2] was “active”.
On to `O=C(O)c1cccnc1C(=O)O` [2,3-Pyridine-dicarboxylic acid], for which the “Fe: Chromatography” value in assay [1] is reported as “No”. Besides, in assay [2] (setting [3]), the “NGAL: Chelator: Fe % Retention” value amounted to 6%.
As to `O=C(O)c1cccc(O)c1O` [2,3- Dihydroxybenzoic acid], in assay [1], the “iron chelating activity” value is recorded as “active” and the “Fe: Chromatography” value is recorded as “Yes”. Besides, the “NGAL: Chelator: Fe % Retention” value in assay [2] (setting [3]) stood at 35%. The “NGAL-siderophore-Fe binding activity (in words)” value in assay [2] was “active”.
On to `C=CC1=C(C)/C(=C/c2[nH]c(Cc3[nH]c(/C=C4\NC(=O)C(C)=C4C=C)c(C)c3CCC(=O)O)c(CCC(=O)O)c2C)NC1=O` [Bilirubin], for which, in assay [1], the “Fe: Chromatography” value is “No”. Further, the “NGAL: Chelator: Fe % Retention” value in assay [2] (setting [3]) is given as 3%.
For the molecule `NCc1[nH]cc(CCC(=O)O)c1CC(=O)O` [Porphobilinogen], the “Fe: Chromatography” value in assay [1] is listed as “No”. Also, the “NGAL: Chelator: Fe % Retention” value in assay [2] (setting [3]) is recorded as 3%.
Regarding β-Nicotinamide adenine, in assay [1], the “iron chelating activity” value was “active”.
On to `NC(=O)c1ccc[n+]([C@@H]2O[C@H](COP(=O)(O)OP(=O)(O)OC[C@H]3O[C@@H](n4cnc5c(N)ncnc54)[C@H](O)[C@@H]3O)[C@@H](O)[C@H]2O)c1` [NAD], for which, in assay [1], the “Fe: Chromatography” value is on record as “No”. The “NGAL: Chelator: Fe % Retention” value in assay [2] (setting [3]) came to 12%.
In the same order, the values of `O=S1(=O)Oc2ccccc2O1` [Catechol cyclic sulfonate] are “No” and 6%.
On to `O=C(O)c1ccc(O)c(O)c1` [3,4- Dihydroxybenzoic Acid], for which, in assay [1], the “iron chelating activity” value is given as “active” and the “Fe: Chromatography” value is reported as “Yes”. The “NGAL: Chelator: Fe % Retention” value in assay [2] (setting [3]) was determined as 5%.
Consider `O=C(O[C@@H]1Cc2c(O)cc(O)cc2O[C@@H]1c1cc(O)c(O)c(O)c1)c1cc(O)c(O)c(O)c1` [(−) Epigallocatechin gallate], for which, in assay [1], the “iron chelating activity” value is recorded as “active” and the “Fe: Chromatography” value was “Yes”. In assay [2] (setting [3]), the “NGAL: Chelator: Fe % Retention” value worked out at 45%. Also, in assay [2], the “NGAL-siderophore-Fe binding activity (in words)” value is listed as “active”.
Take `N[C@@H](Cc1ccc(O)c(O)c1)C(=O)O` [Dihydroxyphenyl alanine (L-DOPA)]: in assay [1], the “iron chelating activity” value is recorded as “active” and the “Fe: Chromatography” value is reported as “Yes”. Besides, in assay [2] (setting [3]), the “NGAL: Chelator: Fe % Retention” value turned out to be 10%.
Turning to `C=CC1=C(C)c2cc3[nH]c(cc4nc(cc5[nH]c(cc1n2)c(C)c5CCC(=O)O)C(CCC(=O)O)=C4C)c(C)c3C=C` [Protoporphyrin IX], the “NGAL: Chelator: Fe % Retention” value in assay [2] (setting [3]) is listed as 3%.
`NC(=O)c1ccc[n+]([C@@H]2O[C@H](COP(=O)(O)OP(=O)(O)OC[C@H]3O[C@@H](n4cnc5c(N)ncnc54)[C@H](OP(=O)(O)O)[C@@H]3O)[C@@H](O)[C@H]2O)c1` [NADP]: in assay [1], the “iron chelating activity” value is reported as “active” and the “Fe: Chromatography” value is “Yes”. Moreover, the “NGAL: Chelator: Fe % Retention” value in assay [2] (setting [3]) was determined as 7%.
Regarding `O=C(O)CNC(=O)c1ccco1` [2-Furoylglycine], in assay [1], the “Fe: Chromatography” value was “No”. Also, the “NGAL: Chelator: Fe % Retention” value in assay [2] (setting [3]) is recorded as 6%.
In the same order, the values of `NC(=O)C1=CN([C@@H]2O[C@H](COP(=O)(O)OP(=O)(O)OC[C@H]3O[C@@H](n4cnc5c(N)ncnc54)[C@H](OP(=O)(O)O)[C@@H]3O)[C@@H](O)[C@H]2O)C=CC1` [NADPH] are “Yes” and 3%.
With `O=c1oc2c(O)c(O)cc3c(=O)oc4c(O)c(O)cc1c4c23` [Ellagic acid], in assay [1], the “iron chelating activity” value is “active” and the “Fe: Chromatography” value is “Yes”. Moreover, in assay [2] (setting [3]), the “NGAL: Chelator: Fe % Retention” value is recorded as 24%. In addition, the “NGAL-siderophore-Fe binding activity (in words)” value in assay [2] is recorded as “active”.
Consider `O=C(O)c1ccccc1O` [Salicylic acid], for which the “Fe: Chromatography” value in assay [1] is “No”. Moreover, in assay [2] (setting [3]), the “NGAL: Chelator: Fe % Retention” value is reported as 15%.
Regarding `O=C(O)Cc1c[nH]c2ccc(O)cc12` [5-Hydroxy-indoleacetic acid], in assay [2] (setting [3]), the “NGAL: Chelator: Fe % Retention” value is reported as 7%.
`O=C(O)/C=C/c1ccc(O)c(O)c1` [Caffeic acid]: the “Fe: Chromatography” value in assay [1] is reported as “No”. For the same molecule, the “NGAL: Chelator: Fe % Retention” value in assay [2] (setting [3]) is 7%.
For `Nc1nc2[nH]cc(CNc3ccc(C(=O)N[C@@H](CCC(=O)O)C(=O)O)cc3)nc-2c(=O)n1` [Folic acid], in that order: “No” and 3%.
Turning to `COc1cccc(C(=O)O)c1OC` [2,3 Dimethoxybenzoic acid], the “Fe: Chromatography” value in assay [1] is “No”. The “NGAL: Chelator: Fe % Retention” value in assay [2] (setting [3]) was found to be 6%.
As to `Oc1cccc(O)c1O` [Benzene 1,2,3 Trial (Pyrogallol)], in assay [1], the “Fe: Chromatography” value is recorded as “Yes”. Also, the “NGAL: Chelator: Fe % Retention” value in assay [2] (setting [3]) is reported as 73%. Besides, in assay [2], the “NGAL-siderophore-Fe binding activity (in words)” value is “highest activities”.
As to `O=C([O-])CC(O)(CC(=O)[O-])C(=O)[O-].[Na+].[Na+].[Na+]` [Citric acid sodium], in assay [1], the “iron chelating activity” value is “active” and the “Fe: Chromatography” value is “Yes”. The “NGAL: Chelator: Fe % Retention” value in assay [2] (setting [3]) was 6%.
As for `COc1ccccc1OC` [1,2-Dimethoxybenzene], the “Fe: Chromatography” value in assay [1] was “No”. Besides, the “NGAL: Chelator: Fe % Retention” value in assay [2] (setting [3]) turned out to be 3%.
In the case of `NC(Cc1ccc(O)c(O)c1)C(=O)O` (racemic) [3,4-Dihydroxy-DL-phenylalanine], in assay [1], the “iron chelating activity” value was “active” and the “Fe: Chromatography” value is recorded as “Yes”. In assay [2] (setting [3]), the “NGAL: Chelator: Fe % Retention” value was determined as 12%.
For the molecule `O=C(O)CCC(=O)O` [Succinic acid], the “NGAL: Chelator: Fe % Retention” value in assay [2] (pH 7.4) came out at 11%.
As for `Cc1cc2nc3c(=O)[nH]c(=O)nc-3n(C[C@H](O)[C@H](O)[C@H](O)COP(=O)(O)OP(=O)(O)OC[C@H]3O[C@@H](n4cnc5c(N)ncnc54)[C@H](O)[C@@H]3O)c2cc1C` [FAD], in assay [2] (setting [3]), the “NGAL: Chelator: Fe % Retention” value is 6%.
Take `O=c1cc[nH]c(=O)[nH]1` [Uracil]: the “NGAL: Chelator: Fe % Retention” value in assay [2] (setting [3]) is listed as 7%.
For `O=C(O)CC(C(=O)O)C(O)C(=O)O` (racemic) [Isocitric acid], the “Fe: Chromatography” value in assay [1] is listed as “Yes”.
